Laboratory results as given in patent publication US7910594B2 (priority 2002, dated 2011).
Values joined by “and” are separate entries in the source; they are usually repeats but may differ in a detail not shown here. Equal values may be shown once.

Legend:
[1] = test system: folate receptor-positive KB cells; experiment: in vitro cytotoxicity assay (bromodeoxyuridine-based ELISA); assay type: cell-based
Protocol: A compound denominated as EC72 (see scheme 1) was evaluated using an in vitro cytotoxicity assay that predicts the ability of the drug to inhibit the growth of folate receptor-positive KB cells. This compound comprises a folate analog linked to mitomycin C prepared according to the protocol depicted in scheme 2. The KB cells were exposed for 15 minutes at 37° C. to the indicated concentrations of EC72, free mitomyicn C (drug #1), or to EC72 and at least a 100-fold excess of folic acid. The cells were then rinsed once with fresh culture medium and incubated in fresh culture medium for 72 hours at 37° C. Cell viability was assessed using a bromodeoxyuridine-based ELISA assay.

M109 tumor = experiment: survival of intraperitoneal M109 tumor-bearing mice; assay type: in vivo, Balb/c mice; conditions: for increase in lifespan (ILS): 1800 mmoles/kg i.p. once daily beginning on day 5 after tumor cell inoculation, FIG. 2
Protocol: (§1) The effectiveness of EC72 for promoting survival of tumor-bearing mice was evaluated in vivo using M109 tumor-bearing Balb/c mice. There were two goals of this study: i) to determine if daily intraperitoneal treatment with EC72 could prolong the lives of folate receptor-positive tumor-bearing mice beyond what mitomycin C could do when tested under an identical dosing regimen, and ii) to examine the pathological effects of EC72 treatment on normal tissues, including kidney tissue which is folate receptor-positive tissue. Although most normal tissues contain very low levels of folate receptor, the proximal tubules of the kidney express appreciable numbers of folate receptors. Thus, the in vivo evaluation of EC72 also enabled evaluation of the extent of kidney-specific damage caused by the systemic administration of folate-mitomycin conjugates.
Balb/c mice (5 mice/group) were given an intraperitoneal injection with 1×10^6 M109 cells. The mice were then given an intraperitoneal injection once daily with […]/kg of EC72 or mitomycin C (control mice were injected with PBS) beginning on day 5 after tumor cell innoculation (ILS=increased life span (i.e., median survival time)).
Thus, a group of animals were given intraperitoneal injections of EC72 plus a 10-fold excess of free folic acid.

[2] = for myelosuppression / kidney damage: M109 tumor-bearing mice, daily i.p. treatment
Protocol: as §1
Major organs were also collected in both the EC72 and mitomycin C-treated animals (following euthanasia), and they were sent to an independent pathologist for examination.

subcutaneous M109 tumors [3] = experiment: growth of subcutaneous M109 tumors, EC72 i.v. then i.p.; assay type: in vivo, Balb/c mice; conditions: 1800 nmoles/kg qd×5 for six weeks from day 4, i.v. (12 injections) then i.p.; FIG. 4
Protocol: The anti-tumor activity of EC72 when administered intravenously (i.v.) to tumor-bearing animals, was evaluated in Balb/c mice bearing subcutaneous M109 tumors. Thus, a protocol similar to that described in Example 3 was followed except that the compounds were administered i.v. (described below) and the tumors were subcutaneous. Four days post tumor inoculation in the subcutis of the right axilla, mice were injected i.v. qd×5 for six weeks with 1800 nmoles/kg of EC72.
Tumor growth was determined at 2-day intervals in each treatment group until the tumors grew to at least 1500 mm3. The tail veins became excessively bruised and inaccessible after 12 i.v. injections so dosing was continued i.p. following the same qd×5 schedule. […] Thus, EC72 may not have reached the distal subcutaneous tumor efficiently following i.p. administration of EC72, a limitation not encountered when EC72 was administered i.v. during the initial phase of the therapy.

subcutaneous M109 tumors [4] = experiment: survival of mice bearing subcutaneous M109 tumors, delayed start of EC72 treatment; assay type: in vivo, Balb/c mice; conditions: for Median Survival: EC72 1800 nmol/kg i.v. qd×5 for 4 weeks
Protocol: The protocol described in Example 4 was followed except that mice were injected i.v. throughout the treatment period and were treated with EC72 for 4 weeks. Balb/c mice (n=5) were injected subcutaneously in the subcutis of the right axilla with 1×10^6 M109 cells and were treated qd×5 for 4 weeks with 1800 nmol/kg of EC72. EC72 was administered i.v. beginning on the designated day post tumor cell inoculation (PTI; see Table 3). Animal survival was monitored daily, and mice showing a complete response were those that were tumor-free at day 60 PTI.

[5] = target: T1, folate receptors (FRs) on KB cells (Homo sapiens, UniProt P15328); experiment: relative affinity assay (3H-folic acid displacement); assay type: binding; conditions: 100 nM 3H-folic acid, 15 min on ice, folic acid set to 1, FIG. 9
T1 construct: FR-positive KB cells were gently trypsinized; endogenous in cells; host or cells: KB cells
T1 sequence (P15328 25-234): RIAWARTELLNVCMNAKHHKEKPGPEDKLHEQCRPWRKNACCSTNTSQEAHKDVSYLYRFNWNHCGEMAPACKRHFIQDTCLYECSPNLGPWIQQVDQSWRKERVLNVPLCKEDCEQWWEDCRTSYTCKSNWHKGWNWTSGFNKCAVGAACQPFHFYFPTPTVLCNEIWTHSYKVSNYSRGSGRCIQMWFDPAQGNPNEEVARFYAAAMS
Protocol: The affinity of EC72 for folate receptors (FRs) relative to folate was determined according to a previously described method (Westerhof, G. R., J. H. Schomagel, et al. (1995) Mol. Pharm. 48: 459-471) with slight modification. Briefly, FR-positive KB cells were gently trypsinized in 0.25% trypsin in phosphate-buffered saline (PBS) at room temperature for 3 minutes and then diluted in folate-free RPMI (FFRPMI) containing 10% heat-inactivated fetal calf serum (HIFCS). Following a 5 min 800×g spin and one PBS wash, the final cell pellet was suspended in FFRPMI 1640 (no serum). Cells were incubated for 15 min on ice with 100 nM ^3H-folic acid in the absence and presence of increasing concentrations of EC72 or folate. Samples were centrifuged at 10,000×g for 5 min, and then the cell pellets were suspended in buffer, transferred to individual vials containing 5 mL of scintillation cocktail, and then counted for radioactivity. Negative control tubes contained only the ^3H-folic acid in FFRPMI (no competitor). Positive control tubes contained a final concentration of 1 mM folic acid, and CPMs measured in these samples (representing non-specific binding of label) were subtracted from all samples.

FR-positive KB cells = experiment: in vitro dose response, 3H-thymidine incorporation (DNA synthesis); assay type: cell-based; conditions: 0.1 mM folic acid (competitor)
Protocol: KB cells were seeded in 12-well Falcon plates and allowed to form near-confluent monolayers overnight. Following one rinse with 1 mL of fresh FFRPMI/HIFCS, each well received 0.5 mL of FFRPMI/HIFCS containing increasing concentrations of EC72 in the presence of absence of 0.1 mM folic acid (competitor). Cells were incubated for 15 min at 37° C. and then rinsed four times with 0.5 mL of FFRPMI/HIFCS. 0.5 mL of fresh FFRPMI/HIFCS was then added to each well, and cells were chased for a total of 72 h at 37° C. Two hours before the end of the incubation, media was replaced in each well with 0.5 mL FFRPMI/HIFCS containing 5 μCi of ^3H-thymidine. Monolayers were then washed 3 times with 0.5 mL of PBS and then precipitated with 1 ml of 10% cold trichloroacetic acid. The trichloroacetic acid solution was collected and discarded, and precipitated material was sequentially dissolved in 0.5 mL 0.25 N NaOH and 1% sodium dodecyl sulfate for 15 min at room temperature. Samples were then counted for radioactivity using a Packard gamma counter. Final tabulated values were expressed as a percentage of radioactivity incorporated into untreated cell samples.

[6] = test system: Folate receptor-positive M109 P0 tumor cells; experiment: in vivo dose response, intraperitoneal M109 tumor; parameters: species or system mice (female Balb/C strain)
Protocol: Six to seven week-old mice (female Balb/C strain) were obtained from Harlan, Inc., Indianapolis, Ind. The mice were maintained on Harlan's folate-free chow for a total of three weeks prior to the onset of and during this experiment. Folate receptor-positive M109 P0 tumor cells (0.5×10^6 cells per animal) were inoculated in the upper peritoneal cavity 4 days prior to the onset of dosing. The formulations indicated in FIG. 11 were dosed intraperitoneally qd×30 starting on day 4 post tumor inoculation, and animal survival was monitored daily.

[7] = test system: Folate receptor-negative 4T-1 tumor; experiment: in vivo activity on folate receptor-negative tumor; parameters: species or system mice (female Balb/C strain); conditions: i.p. qd×30 from day 4 post tumor inoculation; FIG. 12
Protocol: Six to seven week-old mice (female Balb/C strain) were obtained from Harlan, Inc., Indianapolis, Ind. The mice were maintained on Harlan's folate-free chow for a total of three weeks prior to the onset of and during this experiment. Folate receptor-negative 4T-1 tumor cells (1×10^6 cells per animal) were inoculated in the subcutis of the right axilla. The formulations indicated in FIG. 12 were dosed intraperitoneally qd×30 starting on day 4 post tumor inoculation, and tumor volume as well as animal survival were monitored daily. EC72 had no activity against a subcutaneous folate-receptor-negative 4T-1 tumor.

subcutaneous M109 tumors [8] = experiment: subcutaneous M109 tumors treated with TAXOL with or without EC72; assay type: in vivo, Balb/c mice
Protocol: The protocol described in Example 5 was followed except that animals were injected i.v. at the beginning of the treatment period and were injected i.p. later in the treatment period.
Tumor volumes were calculated using the equation V=a×b^2/2, where “a” is the length of the tumor and “b” is the width expressed in millimeters. The tumors were measured using calipers.

[9] = toxicity of TAXOL / EC72 regimens (weight loss, blood chemistry, tissue pathology); assay type: in vivo, Balb/c mice; parameters: key to Liver: mice with Degeneration / Liver: grade of Degeneration: “0.5” = Occasionally present; “1” = Mild; “2” = Moderate; “3” = Marked
Source text: The toxicity of each tested regimen was also monitored by measuring weight loss, blood chemistry, and tissue pathology.

[10] = Taxol 15 mg/kg with EC72 0 or 1800 nmol/kg, 6 mice/cohort
[11] = Taxol 15 mg/kg with EC72 0 or 1800 nmol/kg, 6 mice/cohort, listed as Taxol
[12] = tissue pathology, TAXOL 15 mg/kg, n = 6 mice

CO[C@@]12[C@H](COC(N)=O)C3=C(C(=O)C(C)=C(NCCSSC[C@H](NC(=O)CC[C@H](NC(=O)c4ccc(NCc5cnc6nc(N)[nH]c(=O)c6n5)cc4)C(=O)O)C(=O)O)C3=O)N1C[C@@H]1N[C@@H]12 [EC72]
cytotoxicity compared with free mitomycin C ([1]; 15 minutes exposure at 37° C., 72 hours chase, FIG. 1): equal to that of free mitomycin C | cytotoxicity in the presence of excess free folic acid ([1]; at least a 100-fold excess of folic acid): blocked | increase in lifespan (ILS) (M109 tumor): 178% | animals tumor-free by day 70 post tumor cell inoculation (M109 tumor; 30 daily i.p. injections): 1 of 4 | outcome of group coinjected with folic acid (M109 tumor; EC72 plus a 10-fold excess of free folic acid): all mice in this group eventually died from the tumor burden | myelosuppression / kidney damage [2]: no evidence of myelosuppression or kidney damage | blood-urea-nitrogen and creatine levels ([2]; following 30 consecutive daily injections): normal | effect on growth of subcutaneous M109 tumor (subcutaneous M109 tumors [3]): effective in delaying the growth of the M109 tumor | Median Survival (subcutaneous M109 tumors [4]; initiation PTI 1): 56 days | Median Survival (subcutaneous M109 tumors [4]; initiation PTI 3): 54 days | Median Survival (subcutaneous M109 tumors [4]; initiation PTI 7): 28 days | Median Survival (subcutaneous M109 tumors [4]; initiation PTI 12): 26 days | anti-tumor response of EC72 alone (subcutaneous M109 tumors [4]; EC72 treatment initiated 12 days PTI, subcutaneous tumor model): failed to produce an anti-tumor response | % ILS (subcutaneous M109 tumors [4]; initiation PTI 1): 133% | Complete Responses (tumor-free at day 60 PTI) (subcutaneous M109 tumors [4]; initiation PTI 1, n = 5): 2 of 5 and 2 | Partial Responses (subcutaneous M109 tumors [4]; initiation PTI 1, n = 5): 3 of 5 and 3 | % ILS (subcutaneous M109 tumors [4]; initiation PTI 3): 125% | Complete Responses (tumor-free at day 60 PTI) (subcutaneous M109 tumors [4]; initiation PTI 3, n = 5): 0 | Partial Responses (subcutaneous M109 tumors [4]; initiation PTI 3, n = 5): 5 | % ILS (subcutaneous M109 tumors [4]; initiation PTI 7): 17% | Complete Responses (tumor-free at day 60 PTI) (subcutaneous M109 tumors [4]; initiation PTI 7, n = 5): 0 | Partial Responses (subcutaneous M109 tumors [4]; initiation PTI 7, n = 5): 5 | % ILS (subcutaneous M109 tumors [4]; initiation PTI 12): 8% | Complete Responses (tumor-free at day 60 PTI) (subcutaneous M109 tumors [4]; initiation PTI 12, n = 5): 0 of 5 and 0 | Partial Responses (subcutaneous M109 tumors [4]; initiation PTI 12, n = 5): 5 | relative affinity for the folate receptor [5]: 0.59 | DNA synthesis inhibition in the presence of excess free folic acid (FR-positive KB cells): effectively blocked any DNA synthesis inhibition | animals showing a complete response ([6]; 1800 nmol/kg i.p. qd×30): 1 of 4 | increase in lifespan ([6]; 1800 nmol/kg i.p. qd×30 from day 4 post tumor inoculation): 240% | dose dependence of activity in M109 tumor-bearing mice ([6]; 100, 400, 1800 nmol/kg i.p. qd×30 from day 4, FIG. 11): dose-dependent activity | activity against subcutaneous folate-receptor-negative 4T-1 tumor [7]: no activity

CC(=O)O[C@H]1C(=O)[C@@]2(C)[C@H]([C@H](OC(=O)c3ccccc3)[C@]3(O)C[C@H](OC(=O)[C@H](O)[C@@H](NC(=O)c4ccccc4)c4ccccc4)C(C)=C1C3(C)C)[C@]1(OC(C)=O)CO[C@@H]1C[C@@H]2O [TAXOL®, paclitaxel]
day PTI until which tumors failed to grow (subcutaneous M109 tumors [8]; TAXOL 15 mg/kg, from day 12 PTI): 21 day PTI | log cell kill (LCK) (subcutaneous M109 tumors [8]; TAXOL 20 mg/kg i.v. with or without EC72 1800 nmol/kg qd×5 for 4 weeks, from day 12 PTI, FIG. 7): 1.3 | day PTI until which tumors failed to grow (subcutaneous M109 tumors [8]; TAXOL 20 mg/kg, from day 12 PTI): 29 day PTI | long term survivors (subcutaneous M109 tumors [8]; TAXOL 20 mg/kg, n=5): none of the 5 mice | CR (complete response) (subcutaneous M109 tumors [8]; [10]): 2 of the 6 | NR (no response) (subcutaneous M109 tumors [8]; [10]): 0 | PR (partial response) (subcutaneous M109 tumors [8]; [10]): 4 of the 6 | CR (complete response) (subcutaneous M109 tumors [8]; [11]): 2 | PR (partial response) (subcutaneous M109 tumors [8]; [11]): 4 | Log Cell Kill (LCK) (subcutaneous M109 tumors [8]; Taxol 15 mg/kg with EC72 0 or 1800 nmol/kg, from day 12 PTI, 6 mice/cohort, FIG. 8): 0.6 | appearance and body weight during dosing ([9]; TAXOL 20 mg/kg with or without EC72 1800 nmol/kg): appeared sick, experienced weight loss | Bone: mice Normal [9, 12]: 6 | Heart: mice Normal [9, 12]: 6 | Kidney: mice Normal [9, 12]: 6 | Liver: mice Normal [9, 12]: 5 | Spleen: mice Normal [9, 12]: 6 | Liver: grade of Degeneration ([9]; tissue pathology, grade in brackets): 1(1) | Liver: mice with Degeneration ([9]; tissue pathology, number before the bracket, n = 6 mice): 1(1)

CO[C@@]12[C@H](COC(N)=O)C3=C(C(=O)C(C)=C(N)C3=O)N1C[C@@H]1N[C@@H]12 [mitomycin C, reference compound]
increase in lifespan (ILS) (M109 tumor): 39% | increased life span (median survival time) over PBS control group (M109 tumor; repeat experiment, 30 daily i.p. injections, FIG. 3): ~25% | myelosuppression / kidney damage [2]: extensive myelosuppression | cause of death of treated animals ([2]; mouse, in vivo, ip): died from apparent mitomycin C-related side effects
